Measurements from ChEMBL document CHEMBL3137667, “[Drug-induced liver injury; fourteenth updated edition of the bibliographic database of liver injuries and related drugs]” (Gastroenterol Clin Biol, 2004).

Experiments:
[1] = Highest frequency of moderate liver toxicity observed during clinical trials, expressed as a percentage. [column '% BIOL' in source]; conditions: human
[2] = Highest frequency of acute liver toxicity observed during clinical trials, expressed as a percentage. [column '% AIGUE' in source]; conditions: human
[3] = Comments (NB not yet translated). [column 'COMMENTAIRES' in source]; conditions: human
[4] = human, serum
[5] = human, serum; remark: listed apart in the source
[6] = human
[7] = human; remark: listed apart in the source
[8] = human; remark: listed apart in the source
[9] = human, serum, 4383 h
[10] = human; remark: listed apart in the source
[11] = human; remark: listed apart in the source
[12] = human; remark: listed apart in the source
[13] = human; remark: listed apart in the source
[14] = human; remark: listed apart in the source
[15] = human; remark: listed apart in the source
[16] = Times to onset, minimal and maximal, observed in the indexed observations. [column 'DELAI' in source]; conditions: human
[17] = Proposed mechanism(s) of liver damage. [column 'MEC' in source]; conditions: human
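Throughout, for Hepatotoxicity (association with vascular disease): count of indexed literature references reporting vascular liver injury in humans, e.g. peliosis hepatitis, hepatic veno-occlusive disease or Budd-Chiari syndrome.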
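Throughout, for Hepatotoxicity (benign tumour): value is a count of indexed literature references citing a benign tumour confirmed by histopathology.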
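Throughout, for Hepatotoxicity (choleostasis): human cholestatic liver injury, shown by histopathology or by peak ALT or AST elevation over alkaline phosphatase ratio below 2, value counts indexed literature reports.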
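Throughout, for Hepatotoxicity (chronic liver disease): chronic liver injury confirmed by histopathology or persistently raised serum aminotransferase activity beyond 6 months, value given as the count of indexed literature references.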
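Throughout, for Hepatotoxicity (cirrhosis): value is a count of indexed literature references reporting cirrhosis confirmed by histopathology.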
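Throughout, for Hepatotoxicity (cytolytic): human cytolytic liver injury, shown by histopathology or by a ratio above 5 of peak ALT or AST elevation to alkaline phosphatase elevation, value counts indexed references.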
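Throughout, for Hepatotoxicity (granulomatous hepatitis): value is a count of indexed literature references reporting granulomatous liver disease confirmed by histopathology.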
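Throughout, for Hepatotoxicity (malignant tumour): malignant tumour confirmed by histopathology, value gives the count of indexed literature references reporting it.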
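Throughout, for Hepatotoxicity (severe hepatitis): human clinical data: severe hepatitis, meaning potentially life-threatening liver failure or clinically observed cases, the value counts how many indexed literature references report it.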
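Throughout, for Hepatotoxicity (steatosis): steatosis confirmed by histopathology, value is the count of indexed references.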

CN(C)C(=O)Oc1cc(OC(=O)N(C)C)cc(C(O)CNC(C)(C)C)c1 (configuration not stated) [BAMBUTEROL]
Hepatotoxicity (moderate) [1]: 0% | Hepatotoxicity (acute) [2]: 0% | Hepatotoxicity (comment) [3]: VOIR_TERBUTALINE | Hepatotoxicity (moderate) [4]: 1 | Hepatotoxicity (acute) [5]: 0 | Hepatotoxicity (cytolytic) [6]: 0 | Hepatotoxicity (choleostasis) [7]: 0 | Hepatotoxicity (severe hepatitis) [8]: 0 | Hepatotoxicity (chronic liver disease) [9]: 0 | Hepatotoxicity (cirrhosis) [10]: 0 | Hepatotoxicity (granulomatous hepatitis) [11]: 0 | Hepatotoxicity (association with vascular disease) [12]: 0 | Hepatotoxicity (steatosis) [13]: 0 | Hepatotoxicity (malignant tumour) [14]: 0 | Hepatotoxicity (benign tumour) [15]: 0

CO/N=C(\C(=O)N[C@@H]1C(=O)N2C(C(=O)O)=C(CSc3nnnn3C)CS[C@H]12)c1csc(N)n1 [CEFMENOXIME]
Hepatotoxicity (moderate) [1]: 12.2% | Hepatotoxicity (acute) [2]: 0% | Hepatotoxicity (comment) [3]: CHOLESTASE_PROLONGEE | Hepatotoxicity (moderate) [4]: 11 | Hepatotoxicity (acute) [5]: 1 | Hepatotoxicity (cytolytic) [6]: 0 | Hepatotoxicity (choleostasis) [7]: 1 | Hepatotoxicity (severe hepatitis) [8]: 0 | Hepatotoxicity (chronic liver disease) [9]: 0 | Hepatotoxicity (cirrhosis) [10]: 0 | Hepatotoxicity (granulomatous hepatitis) [11]: 1 | Hepatotoxicity (association with vascular disease) [12]: 0 | Hepatotoxicity (steatosis) [13]: 0 | Hepatotoxicity (malignant tumour) [14]: 0 | Hepatotoxicity (benign tumour) [15]: 0

C[C@]12CCC(=O)C=C1CC[C@@H]1[C@@H]2C(=O)C[C@@]2(C)[C@H]1CC[C@]2(O)C(=O)CO [CORTISONE]
Hepatotoxicity (moderate) [1]: 0% | Hepatotoxicity (acute) [2]: 0% | Hepatotoxicity (comment) [3]: AGGRAVATION_HEPATITE_VIRALE | Hepatotoxicity (moderate) [4]: 0 | Hepatotoxicity (acute) [5]: 0 | Hepatotoxicity (cytolytic) [6]: 0 | Hepatotoxicity (choleostasis) [7]: 0 | Hepatotoxicity (severe hepatitis) [8]: 0 | Hepatotoxicity (chronic liver disease) [9]: 0 | Hepatotoxicity (cirrhosis) [10]: 0 | Hepatotoxicity (granulomatous hepatitis) [11]: 0 | Hepatotoxicity (association with vascular disease) [12]: 2 | Hepatotoxicity (steatosis) [13]: 5 | Hepatotoxicity (malignant tumour) [14]: 0 | Hepatotoxicity (benign tumour) [15]: 0

CC[C@H](c1ccc(O)cc1)[C@@H](CC)c1ccc(O)cc1 [HEXESTROL]
Hepatotoxicity (moderate) [1]: 0% | Hepatotoxicity (acute) [2]: 0% | Hepatotoxicity (comment) [3]: NASH | Hepatotoxicity (moderate) [4]: 0 | Hepatotoxicity (acute) [5]: 0 | Hepatotoxicity (cytolytic) [6]: 0 | Hepatotoxicity (choleostasis) [7]: 0 | Hepatotoxicity (severe hepatitis) [8]: 0 | Hepatotoxicity (chronic liver disease) [9]: 1 | Hepatotoxicity (cirrhosis) [10]: 0 | Hepatotoxicity (granulomatous hepatitis) [11]: 0 | Hepatotoxicity (association with vascular disease) [12]: 0 | Hepatotoxicity (steatosis) [13]: 1 | Hepatotoxicity (malignant tumour) [14]: 0 | Hepatotoxicity (benign tumour) [15]: 0

CCOC(=O)CN[C@@H](C(=O)N1CC[C@H]1C(=O)NCc1ccc(/C(N)=N\O)cc1)C1CCCCC1 [XIMELAGATRAN]
Hepatotoxicity (moderate) [1]: 9.8% | Hepatotoxicity (acute) [2]: 6.8% | Hepatotoxicity (time to onset) [16]: 1 month - 6 months | Hepatotoxicity (mechanism) [17]: Dose-dependant | Hepatotoxicity (moderate) [4]: 9 | Hepatotoxicity (acute) [5]: 3 | Hepatotoxicity (cytolytic) [6]: 0 | Hepatotoxicity (choleostasis) [7]: 0 | Hepatotoxicity (severe hepatitis) [8]: 0 | Hepatotoxicity (chronic liver disease) [9]: 0 | Hepatotoxicity (cirrhosis) [10]: 0 | Hepatotoxicity (granulomatous hepatitis) [11]: 0 | Hepatotoxicity (association with vascular disease) [12]: 0 | Hepatotoxicity (steatosis) [13]: 0 | Hepatotoxicity (malignant tumour) [14]: 0 | Hepatotoxicity (benign tumour) [15]: 0

CC(c1cc2ccccc2s1)N(O)C(N)=O (configuration not stated) [ZILEUTON]
Hepatotoxicity (moderate) [1]: 16.7% | Hepatotoxicity (acute) [2]: 0% | Hepatotoxicity (time to onset) [16]: 24 days | Hepatotoxicity (mechanism) [17]: Dose-dependant | Hepatotoxicity (moderate) [4]: 8 | Hepatotoxicity (acute) [5]: 2 | Hepatotoxicity (cytolytic) [6]: 1 | Hepatotoxicity (choleostasis) [7]: 0 | Hepatotoxicity (severe hepatitis) [8]: 0 | Hepatotoxicity (chronic liver disease) [9]: 0 | Hepatotoxicity (cirrhosis) [10]: 0 | Hepatotoxicity (granulomatous hepatitis) [11]: 0 | Hepatotoxicity (association with vascular disease) [12]: 0 | Hepatotoxicity (steatosis) [13]: 0 | Hepatotoxicity (malignant tumour) [14]: 0 | Hepatotoxicity (benign tumour) [15]: 0

Cc1cc(CC(=O)O)n(C)c1C(=O)c1ccc(Cl)cc1 [ZOMEPIRAC]
Hepatotoxicity (moderate) [1]: 1.7% | Hepatotoxicity (acute) [2]: 0% | Hepatotoxicity (time to onset) [16]: 2 weeks | Hepatotoxicity (mechanism) [17]: Allergic | Hepatotoxicity (moderate) [4]: 2 | Hepatotoxicity (acute) [5]: 0 | Hepatotoxicity (cytolytic) [6]: 0 | Hepatotoxicity (choleostasis) [7]: 0 | Hepatotoxicity (severe hepatitis) [8]: 0 | Hepatotoxicity (chronic liver disease) [9]: 0 | Hepatotoxicity (cirrhosis) [10]: 0 | Hepatotoxicity (granulomatous hepatitis) [11]: 0 | Hepatotoxicity (association with vascular disease) [12]: 0 | Hepatotoxicity (steatosis) [13]: 0 | Hepatotoxicity (malignant tumour) [14]: 0 | Hepatotoxicity (benign tumour) [15]: 0

BCG VACCINE
Hepatotoxicity (moderate) [1]: 10% | Hepatotoxicity (acute) [2]: 0.9% | Hepatotoxicity (time to onset) [16]: 1 hour - 2 years | Hepatotoxicity (mechanism) [17]: Allergic | Hepatotoxicity (moderate) [4]: 7 | Hepatotoxicity (acute) [5]: 6 | Hepatotoxicity (cytolytic) [6]: 2 | Hepatotoxicity (choleostasis) [7]: 2 | Hepatotoxicity (severe hepatitis) [8]: 0 | Hepatotoxicity (chronic liver disease) [9]: 0 | Hepatotoxicity (cirrhosis) [10]: 0 | Hepatotoxicity (granulomatous hepatitis) [11]: 32 | Hepatotoxicity (association with vascular disease) [12]: 0 | Hepatotoxicity (steatosis) [13]: 0 | Hepatotoxicity (malignant tumour) [14]: 0 | Hepatotoxicity (benign tumour) [15]: 0

CARBOPLATIN
Hepatotoxicity (moderate) [1]: 27% | Hepatotoxicity (acute) [2]: 6.1% | Hepatotoxicity (time to onset) [16]: 1 week | Hepatotoxicity (mechanism) [17]: Dose-dependant | Hepatotoxicity (moderate) [4]: 5 | Hepatotoxicity (acute) [5]: 1 | Hepatotoxicity (cytolytic) [6]: 0 | Hepatotoxicity (choleostasis) [7]: 1 | Hepatotoxicity (severe hepatitis) [8]: 1 | Hepatotoxicity (chronic liver disease) [9]: 0 | Hepatotoxicity (cirrhosis) [10]: 0 | Hepatotoxicity (granulomatous hepatitis) [11]: 0 | Hepatotoxicity (association with vascular disease) [12]: 5 | Hepatotoxicity (steatosis) [13]: 0 | Hepatotoxicity (malignant tumour) [14]: 0 | Hepatotoxicity (benign tumour) [15]: 0

NADROPARIN CALCIUM
Hepatotoxicity (moderate) [1]: 66.7% | Hepatotoxicity (acute) [2]: 0% | Hepatotoxicity (time to onset) [16]: 5 days - 1 week | Hepatotoxicity (mechanism) [17]: Dose-dependant | Hepatotoxicity (moderate) [4]: 8 | Hepatotoxicity (acute) [5]: 0 | Hepatotoxicity (cytolytic) [6]: 0 | Hepatotoxicity (choleostasis) [7]: 0 | Hepatotoxicity (severe hepatitis) [8]: 0 | Hepatotoxicity (chronic liver disease) [9]: 0 | Hepatotoxicity (cirrhosis) [10]: 0 | Hepatotoxicity (granulomatous hepatitis) [11]: 0 | Hepatotoxicity (association with vascular disease) [12]: 0 | Hepatotoxicity (steatosis) [13]: 0 | Hepatotoxicity (malignant tumour) [14]: 0 | Hepatotoxicity (benign tumour) [15]: 0

STIBOGLUCONATE
Hepatotoxicity (moderate) [1]: 61.5% | Hepatotoxicity (acute) [2]: 2% | Hepatotoxicity (time to onset) [16]: 1 week - 3 weeks | Hepatotoxicity (mechanism) [17]: Dose-dependant | Hepatotoxicity (moderate) [4]: 12 | Hepatotoxicity (acute) [5]: 2 | Hepatotoxicity (cytolytic) [6]: 1 | Hepatotoxicity (choleostasis) [7]: 0 | Hepatotoxicity (severe hepatitis) [8]: 0 | Hepatotoxicity (chronic liver disease) [9]: 0 | Hepatotoxicity (cirrhosis) [10]: 0 | Hepatotoxicity (granulomatous hepatitis) [11]: 0 | Hepatotoxicity (association with vascular disease) [12]: 0 | Hepatotoxicity (steatosis) [13]: 0 | Hepatotoxicity (malignant tumour) [14]: 0 | Hepatotoxicity (benign tumour) [15]: 0
